One experiment deals with HCT116-mock-RNA-KO. Kind of experiment: Cell killing in HCT116 isogenic pair (Cell Titer-Glo viability), mock knock-out cells with MTAP wildtype genotype. It counts as cell-based, human. The conditions noted are these: Homo sapiens, HCT-116, 144 h, 6 days incubation, 0-10 μM. Put shortly: (§1)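 Viability was read by CellTiter-Glo luminescence after 6 days of compound treatment (0–10 μM final, 37° C, 5% CO2), and IC50 values were fitted. The isogenic HCT116 pair, MTAP-KO clone versus mock-KO MTAP-wildtype, was grown in RPMI 1640 plus 10% FBS and seeded the day before.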
(In general: Cellular ATP, detected with luciferase, serves as a proxy for viable cell number.)

In the next experiment the test system is HCT116-MTAP-KO. Kind of experiment: Cell killing in HCT116 isogenic pair (Cell Titer-Glo viability), MTAP knock-out cells. The conditions noted are these: Homo sapiens, HCT-116, 144 h, 6 days incubation, 0-10 μM, * = more than 50% viability inhibition at tested concentration without a full curve. It is filed as cell-based, human. In short, it runs like this:
as §1

Consider `C[C@H](c1ccc(Br)cc1F)N(C)C(=O)c1cc2nc(N)c3c(c2[nH]1)CO[C@@H]3C` [Example 139, (R)-5-amino-N—((R)-1-(4-bromo-2-fluorophenyl)ethyl)-N,6-dimethyl-6,8-dihydro-1H-furo[3,4-d]pyrrolo[3,2-b]pyridine-2-carboxamide], for which the IC50 (usually the point on the concentration scale where inhibition reaches its midpoint) in the experiment on HCT116-mock-RNA-KO is 2400 nM; with HCT116-MTAP-KO it was 12 nM.

For `C[C@H]1OCc2c1c(N)nc1cc(C(=O)N(C)[C@@H](C)c3ccc(Br)cc3F)[nH]c21` [Example 140, (R)-5-amino-N—((S)-1-(4-bromo-2-fluorophenyl)ethyl)-N,6-dimethyl-6,8-dihydro-1H-furo[3,4-d]pyrrolo[3,2-b]pyridine-2-carboxamide], the IC50 in the experiment with HCT116-mock-RNA-KO came to 3030 nM; with HCT116-MTAP-KO it was 270 nM.

As for `Nc1nc2cc(C(=O)N3CCOC[C@@H]3c3ccc(C(F)(F)F)cc3)[nH]c2c2c1COC2` [Example 141, (S)-(5-amino-6,8-dihydro-1H-furo[3,4-d]pyrrolo[3,2-b]pyridin-2-yl)(3-(4-(trifluoromethyl)phenyl)morpholino)methanone], the figures for the IC50 in the experiment with HCT116-mock-RNA-KO and in the experiment on HCT116-MTAP-KO were > 10000 nM and 149 nM, respectively.

For `C[C@H](c1ncc(C2CC2)cc1F)N(C)C(=O)c1cc2nc(N)c3c(c2[nH]1)CO[C@@H]3C` [Example 142, (R)-5-amino-N—((R)-1-(5-cyclopropyl-3-fluoropyridin-2-yl)ethyl)-N,6-dimethyl-6,8-dihydro-1H-furo[3,4-d]pyrrolo[3,2-b]pyridine-2-carboxamide], the IC50 in the experiment on HCT116-mock-RNA-KO was found to be 477 nM; in the experiment with HCT116-MTAP-KO, 2.6 nM.

As for `CCN(C(=O)c1cc2nc(N)c3c(c2[nH]1)COC3)[C@H](C)c1ncc(Br)cc1F` [Example 143, (R)-5-amino-N-(1-(5-bromo-3-fluoropyridin-2-yl)ethyl)-N-ethyl-6,8-dihydro-1H-furo[3,4-d]pyrrolo[3,2-b]pyridine-2-carboxamide], the IC50 amounted to 1380 nM in the experiment on HCT116-mock-RNA-KO and 11 nM in the experiment on HCT116-MTAP-KO.

Turning to `CCN(C(=O)c1cc2nc(N)c3c(c2[nH]1)COC3)[C@@H](C)c1ncc(Br)cc1F` [Example 144, (S)-5-amino-N-(1-(5-bromo-3-fluoropyridin-2-yl)ethyl)-N-ethyl-6,8-dihydro-1H-furo[3,4-d]pyrrolo[3,2-b]pyridine-2-carboxamide], the IC50 was > 10000 nM in the experiment with HCT116-mock-RNA-KO and 543 nM in the experiment on HCT116-MTAP-KO.

Take `C[C@H](c1ccc(C(F)(F)F)cc1F)N(C)C(=O)c1cc2nc(N)c3c(c2[nH]1)COC3` [Example 145, (R)-5-amino-N-(1-(2-fluoro-4-(trifluoromethyl)phenyl)ethyl)-N-methyl-6,8-dihydro-1H-furo[3,4-d]pyrrolo[3,2-b]pyridine-2-carboxamide]: the IC50 was found to be 3430 nM in the experiment on HCT116-mock-RNA-KO and 26 nM with HCT116-MTAP-KO.

Turning to `C[C@@H](c1ccc(C(F)(F)F)cc1F)N(C)C(=O)c1cc2nc(N)c3c(c2[nH]1)COC3` [Example 146, (S)-5-amino-N-(1-(2-fluoro-4-(trifluoromethyl)phenyl)ethyl)-N-methyl-6,8-dihydro-1H-furo[3,4-d]pyrrolo[3,2-b]pyridine-2-carboxamide], the IC50 was > 10000 nM in the experiment with HCT116-mock-RNA-KO and 316 nM with HCT116-MTAP-KO.

`C[C@H]1OCc2c1c(N)nc1cc(C(=O)N(C)[C@@H](C)c3ccc(C(F)(F)F)cc3F)[nH]c21` [Example 147, (R)-5-amino-N—((S)-1-(2-fluoro-4-(trifluoromethyl)phenyl)ethyl)-N,6-dimethyl-6,8-dihydro-1H-furo[3,4-d]pyrrolo[3,2-b]pyridine-2-carboxamide]: the IC50 with HCT116-mock-RNA-KO turned out to be 5420 nM; in the experiment with HCT116-MTAP-KO, 1230 nM.

For `C[C@H](c1ccc(C(F)(F)F)cc1F)N(C)C(=O)c1cc2nc(N)c3c(c2[nH]1)CO[C@@H]3C` [Example 148, (R)-5-amino-N—((R)-1-(2-fluoro-4-(trifluoromethyl)phenyl)ethyl)-N,6-dimethyl-6,8-dihydro-1H-furo[3,4-d]pyrrolo[3,2-b]pyridine-2-carboxamide], the IC50 was 2440 nM in the experiment on HCT116-mock-RNA-KO and 19 nM with HCT116-MTAP-KO.

(Values after patent US20240368177A1, “5-AMINO-6,8-DIHYDRO-1H-FURO[3,4-d]PYRROLO[3,2-b]PYRIDINE-2-CARBOXAMIDE DERIVATIVES AS MTA-COOPERATIVE INHIBITORS OF PRMT5” (BeiGene Switzerland GmbH, priority 2023, published 2024).)
